# PubChem BioAssay (NCI)
#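 Cells were grown in 96-well plates and exposed to each compound for 48 hours at five concentrations; endpoints were interpolated linearly between bracketing concentrations, or set to the highest concentration if not reached. Here, GI50 denotes the concentration required for 50% inhibition of growth. Definition used: TGI = concentration required for complete inhibition of growth.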
# Legend:
# Assay in all cases: inhibition of tumour cell growth, NCI panel, 48 h
# 786-0 renal = test system: 786-0 renal
# A498 renal = test system: A498 renal
# A549 NSCLC = test system: A549 NSCLC
# ACHN renal = test system: ACHN renal
# BT-549 breast = test system: BT-549 breast
# CAKI-1 renal = test system: CAKI-1 renal
# CCRF-CEM leukemia = test system: CCRF-CEM leukemia
# COLO 205 colon = test system: COLO 205 colon
# DU-145 prostate = test system: DU-145 prostate
# EKVX NSCLC = test system: EKVX NSCLC
# HCC-2998 colon = test system: HCC-2998 colon
# HCT-116 colon = test system: HCT-116 colon
# HCT-15 colon = test system: HCT-15 colon
# HL-60(TB) leukemia = test system: HL-60(TB) leukemia
# HOP-62 NSCLC = test system: HOP-62 NSCLC
# HOP-92 NSCLC = test system: HOP-92 NSCLC
# HS 578T breast = test system: HS 578T breast
# HT29 colon = test system: HT29 colon
# IGROV1 ovarian = test system: IGROV1 ovarian
# K-562 leukemia = test system: K-562 leukemia
# KM12 colon = test system: KM12 colon
# LOX IMVI melanoma = test system: LOX IMVI melanoma
# M14 melanoma = test system: M14 melanoma
# MALME-3M melanoma = test system: MALME-3M melanoma
# MCF7 breast = test system: MCF7 breast
# MDA-MB-231 breast = test system: MDA-MB-231 breast
# MDA-MB-435 = test system: MDA-MB-435
# MDA-N = test system: MDA-N
# MOLT-4 leukemia = test system: MOLT-4 leukemia
# NCI-H226 lung = test system: NCI-H226 lung
# NCI-H23 lung = test system: NCI-H23 lung
# NCI-H460 lung = test system: NCI-H460 lung
# NCI-H522 lung = test system: NCI-H522 lung
# NCI/ADR-RES ovarian = test system: NCI/ADR-RES ovarian
# OVCAR-3 ovarian = test system: OVCAR-3 ovarian
# OVCAR-4 ovarian = test system: OVCAR-4 ovarian
# OVCAR-5 ovarian = test system: OVCAR-5 ovarian
# OVCAR-8 ovarian = test system: OVCAR-8 ovarian
# PC-3 prostate = test system: PC-3 prostate
# RPMI-8226 leukemia = test system: RPMI-8226 leukemia
# RXF 393 renal = test system: RXF 393 renal
# SF-268 CNS = test system: SF-268 CNS
# SF-295 CNS = test system: SF-295 CNS
# SF-539 CNS = test system: SF-539 CNS
# SK-MEL-2 melanoma = test system: SK-MEL-2 melanoma
# SK-MEL-28 melanoma = test system: SK-MEL-28 melanoma
# SK-MEL-5 melanoma = test system: SK-MEL-5 melanoma
# SK-OV-3 ovarian = test system: SK-OV-3 ovarian
# SN12C renal = test system: SN12C renal
# SNB-19 CNS = test system: SNB-19 CNS
# SR leukemia = test system: SR leukemia
# SW-620 colon = test system: SW-620 colon
# T-47D breast = test system: T-47D breast
# TK-10 renal = test system: TK-10 renal
# U251 CNS = test system: U251 CNS
# UACC-257 melanoma = test system: UACC-257 melanoma
# UACC-62 melanoma = test system: UACC-62 melanoma
# UO-31 renal = test system: UO-31 renal
# SNB-75 CNS = test system: SNB-75 CNS
smiles,measurement,setting,value
O=C(CCc1ccc(O)c(O)c1)OCCc1ccccc1,TGI,786-0 renal,> 100 µM
same,TGI,A498 renal,> 100 µM
same,TGI,A549 NSCLC,> 100 µM
same,TGI,ACHN renal,> 100 µM
same,TGI,BT-549 breast,> 100 µM
same,TGI,CAKI-1 renal,> 100 µM
same,TGI,CCRF-CEM leukemia,76.3 µM
same,TGI,COLO 205 colon,> 100 µM
same,TGI,DU-145 prostate,> 100 µM
same,TGI,EKVX NSCLC,> 100 µM
same,TGI,HCC-2998 colon,> 100 µM
same,TGI,HCT-116 colon,> 100 µM
same,TGI,HCT-15 colon,> 100 µM
same,TGI,HL-60(TB) leukemia,17.3 µM
same,TGI,HOP-62 NSCLC,> 31.6 µM
same,TGI,HOP-92 NSCLC,> 100 µM
same,TGI,HS 578T breast,> 100 µM
same,TGI,HT29 colon,> 100 µM
same,TGI,IGROV1 ovarian,> 100 µM
same,TGI,K-562 leukemia,> 57.5 µM
same,TGI,KM12 colon,> 100 µM
same,TGI,LOX IMVI melanoma,54.8 µM
same,TGI,M14 melanoma,> 100 µM
same,TGI,MALME-3M melanoma,> 100 µM
same,TGI,MCF7 breast,> 100 µM
same,TGI,MDA-MB-231 breast,> 100 µM
same,TGI,MDA-MB-435,40.6 µM
same,TGI,MDA-N,30.4 µM
same,TGI,MOLT-4 leukemia,> 83.4 µM
same,TGI,NCI-H226 lung,> 100 µM
same,TGI,NCI-H23 lung,> 100 µM
same,TGI,NCI-H460 lung,> 100 µM
same,TGI,NCI-H522 lung,17.8 µM
same,TGI,NCI/ADR-RES ovarian,> 100 µM
same,TGI,OVCAR-3 ovarian,> 100 µM
same,TGI,OVCAR-4 ovarian,> 65.6 µM
same,TGI,OVCAR-5 ovarian,> 100 µM
same,TGI,OVCAR-8 ovarian,> 100 µM
same,TGI,PC-3 prostate,> 100 µM
same,TGI,RPMI-8226 leukemia,> 86.6 µM
same,TGI,RXF 393 renal,> 100 µM
same,TGI,SF-268 CNS,> 100 µM
same,TGI,SF-295 CNS,> 100 µM
same,TGI,SF-539 CNS,54.5 µM
same,TGI,SK-MEL-2 melanoma,> 100 µM
same,TGI,SK-MEL-28 melanoma,> 100 µM
same,TGI,SK-MEL-5 melanoma,> 100 µM
same,TGI,SK-OV-3 ovarian,> 100 µM
same,TGI,SN12C renal,> 100 µM
same,TGI,SNB-19 CNS,> 100 µM
same,TGI,SR leukemia,> 78.2 µM
same,TGI,SW-620 colon,> 62.2 µM
same,TGI,T-47D breast,> 100 µM
same,TGI,TK-10 renal,> 100 µM
same,TGI,U251 CNS,> 100 µM
same,TGI,UACC-257 melanoma,> 100 µM
same,TGI,UACC-62 melanoma,> 100 µM
same,TGI,UO-31 renal,> 100 µM
CC(=N\O)/C(C)=N/O.CC(=N\O)/C(C)=N/O.CC(=N\O)/C(C)=N/O.CC(=N\O)/C(C)=N/O.[CH3-].[CH3-].[Co].[Co],GI50,786-0 renal,18.4 µM
same,TGI,786-0 renal,> 100 µM
same,GI50,A498 renal,32.1 µM
same,TGI,A498 renal,77.1 µM
same,GI50,A549 NSCLC,39.5 µM
same,TGI,A549 NSCLC,> 100 µM
same,GI50,ACHN renal,35.4 µM
same,TGI,ACHN renal,> 100 µM
same,GI50,BT-549 breast,15.1 µM
same,TGI,BT-549 breast,33.8 µM
same,GI50,CAKI-1 renal,35.5 µM
same,TGI,CAKI-1 renal,> 100 µM
same,GI50,COLO 205 colon,15 µM
same,TGI,COLO 205 colon,29.8 µM
same,GI50,DU-145 prostate,30.9 µM
same,TGI,DU-145 prostate,> 100 µM
same,GI50,EKVX NSCLC,18.7 µM
same,TGI,EKVX NSCLC,64.9 µM
same,GI50,HCC-2998 colon,13.1 µM
same,TGI,HCC-2998 colon,26.9 µM
same,GI50,HCT-116 colon,7.75 µM
same,TGI,HCT-116 colon,> 100 µM
same,GI50,HCT-15 colon,24.8 µM
same,TGI,HCT-15 colon,> 100 µM
same,GI50,HL-60(TB) leukemia,17.6 µM
same,TGI,HL-60(TB) leukemia,50.5 µM
same,GI50,HOP-62 NSCLC,14.7 µM
same,TGI,HOP-62 NSCLC,59.2 µM
same,GI50,HOP-92 NSCLC,26.2 µM
same,TGI,HOP-92 NSCLC,71.3 µM
same,GI50,HS 578T breast,22 µM
same,TGI,HS 578T breast,92.5 µM
same,GI50,HT29 colon,23 µM
same,TGI,HT29 colon,82.5 µM
same,GI50,IGROV1 ovarian,28 µM
same,TGI,IGROV1 ovarian,> 100 µM
same,GI50,K-562 leukemia,20.4 µM
same,TGI,K-562 leukemia,> 100 µM
same,GI50,KM12 colon,27 µM
same,TGI,KM12 colon,> 100 µM
same,GI50,LOX IMVI melanoma,14.4 µM
same,TGI,LOX IMVI melanoma,31.2 µM
same,GI50,M14 melanoma,13 µM
same,TGI,M14 melanoma,29.8 µM
same,GI50,MALME-3M melanoma,16.1 µM
same,TGI,MALME-3M melanoma,30.7 µM
same,GI50,MCF7 breast,16.9 µM
same,TGI,MCF7 breast,> 100 µM
same,GI50,MDA-MB-231 breast,25.3 µM
same,TGI,MDA-MB-231 breast,76.7 µM
same,GI50,MDA-MB-435,15 µM
same,TGI,MDA-MB-435,39.9 µM
same,GI50,MDA-N,16.3 µM
same,TGI,MDA-N,> 100 µM
same,GI50,MOLT-4 leukemia,23.8 µM
same,TGI,MOLT-4 leukemia,72.4 µM
same,GI50,NCI-H226 lung,22.8 µM
same,TGI,NCI-H226 lung,42.4 µM
same,GI50,NCI-H460 lung,14.6 µM
same,TGI,NCI-H460 lung,40.7 µM
same,GI50,NCI-H522 lung,12.2 µM
same,TGI,NCI-H522 lung,27.8 µM
same,GI50,NCI/ADR-RES ovarian,> 100 µM
same,TGI,NCI/ADR-RES ovarian,> 100 µM
same,GI50,OVCAR-3 ovarian,15.9 µM
same,TGI,OVCAR-3 ovarian,78.8 µM
same,GI50,OVCAR-4 ovarian,21.1 µM
same,TGI,OVCAR-4 ovarian,83.5 µM
same,GI50,OVCAR-5 ovarian,28.8 µM
same,TGI,OVCAR-5 ovarian,> 100 µM
same,GI50,OVCAR-8 ovarian,27.2 µM
same,TGI,OVCAR-8 ovarian,> 100 µM
same,GI50,PC-3 prostate,21.2 µM
same,TGI,PC-3 prostate,63.8 µM
same,GI50,RPMI-8226 leukemia,12.8 µM
same,TGI,RPMI-8226 leukemia,44.2 µM
same,GI50,RXF 393 renal,16.7 µM
same,TGI,RXF 393 renal,39.9 µM
same,GI50,SF-268 CNS,21.6 µM
same,TGI,SF-268 CNS,72.3 µM
same,GI50,SF-295 CNS,22.8 µM
same,TGI,SF-295 CNS,76.5 µM
same,GI50,SF-539 CNS,11.3 µM
same,TGI,SF-539 CNS,32.1 µM
same,GI50,SK-MEL-2 melanoma,11.8 µM
same,TGI,SK-MEL-2 melanoma,27.5 µM
same,GI50,SK-MEL-28 melanoma,30.2 µM
same,TGI,SK-MEL-28 melanoma,90.9 µM
same,GI50,SK-MEL-5 melanoma,15.3 µM
same,TGI,SK-MEL-5 melanoma,28.6 µM
same,GI50,SK-OV-3 ovarian,34.5 µM
same,TGI,SK-OV-3 ovarian,> 100 µM
same,GI50,SN12C renal,21.9 µM
same,TGI,SN12C renal,> 100 µM
same,GI50,SNB-19 CNS,17.6 µM
same,TGI,SNB-19 CNS,> 100 µM
same,GI50,SNB-75 CNS,15.5 µM
same,TGI,SNB-75 CNS,38.7 µM
same,GI50,SR leukemia,16.2 µM
same,TGI,SR leukemia,50.1 µM
same,GI50,SW-620 colon,29.4 µM
same,TGI,SW-620 colon,> 100 µM
same,GI50,T-47D breast,26.5 µM
same,TGI,T-47D breast,> 100 µM
same,GI50,TK-10 renal,28.5 µM
same,TGI,TK-10 renal,88.8 µM
same,GI50,U251 CNS,11.7 µM
same,TGI,U251 CNS,24.1 µM
same,GI50,UACC-257 melanoma,14.8 µM
same,TGI,UACC-257 melanoma,34.9 µM
same,GI50,UACC-62 melanoma,15.1 µM
same,TGI,UACC-62 melanoma,30.5 µM
same,GI50,UO-31 renal,19.3 µM
same,TGI,UO-31 renal,48.5 µM
